In the supplement of paper PMC10307832:

Assays:
Experiment in all cases: relative viability (nuclei count vs DMSO), 5 days (fraction); higher = more cells survive
201T = tested on: 201T
How it was run: (§1)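 Relative viability is defined as nuclei in treated wells over nuclei in vehicle wells. Duplicate plates were run and medians reported. Lung cancer cell lines in 1536-well plates were dosed by pin tool one day after seeding, with one drug or with a fixed anchor-drug dose plus five library-drug doses (not always all listed) in √10 steps, and nuclei were counted after 5 days.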

COR-L23 = tested on: COR-L23
How it was run: as §1

H3255 = tested on: H3255
How it was run: as §1

HARA = tested on: HARA
How it was run: as §1

HCC-366 = tested on: HCC-366
How it was run: as §1

HCC-78 = tested on: HCC-78
How it was run: as §1

LU99A = tested on: LU99A
How it was run: as §1

NCI-H1650 = tested on: NCI-H1650
How it was run: as §1

NCI-H1651 = tested on: NCI-H1651
How it was run: as §1

NCI-H1755 = tested on: NCI-H1755
How it was run: as §1

NCI-H1793 = tested on: NCI-H1793
How it was run: as §1

NCI-H2085 = tested on: NCI-H2085
How it was run: as §1

NCI-H2087 = tested on: NCI-H2087
How it was run: as §1

NCI-H23 = tested on: NCI-H23
How it was run: as §1

NCI-H3122 = tested on: NCI-H3122
How it was run: as §1

NCI-H322M = tested on: NCI-H322M
How it was run: as §1

NCI-H358 = tested on: NCI-H358
How it was run: as §1

NCI-H460 = tested on: NCI-H460
How it was run: as §1

NCI-H522 = tested on: NCI-H522
How it was run: as §1

NCI-H596 = tested on: NCI-H596
How it was run: as §1

NCI-H650 = tested on: NCI-H650
How it was run: as §1

PC-3 [JPC-3] = tested on: PC-3 [JPC-3]
How it was run: as §1

SK-LU-1 = tested on: SK-LU-1
How it was run: as §1

`Cc1cn(-c2cc(NC(=O)c3ccc(C)c(Nc4nccc(-c5cccnc5)n4)c3)cc(C(F)(F)F)c2)cn1` [Nilotinib] + COc1cccc2cc(-c3nc([C@H]4CC[C@H](C(=O)O)CC4)n4ncnc(N)c34)[nH]c12 [OSI-027] (partner 0.5 µM) was tested, and the relative viability (201T; first compound 0.001 µM) was 0.734, the relative viability (201T; first compound 0.003162 µM) was 0.666 and the relative viability (201T; first compound 0.01 µM) was 0.77. The relative viability (201T; first compound 0.03162 µM) was 0.317, the relative viability (201T; first compound 0.1 µM) was 0.667 and the relative viability (COR-L23; first compound 0.001 µM) was 0.622. The relative viability (COR-L23; first compound 0.003162 µM) was 0.957, the relative viability (COR-L23; first compound 0.01 µM) was 0.92 and the relative viability (COR-L23; first compound 0.03162 µM) was 0.462. It also gave a relative viability (COR-L23; first compound 0.1 µM) of 0.596, a relative viability (H3255; first compound 0.001 µM) of 0.547 and a relative viability (H3255; first compound 0.003162 µM) of 0.566. The relative viability (H3255; first compound 0.03162 µM) was 0.501, the relative viability (H3255; first compound 0.1 µM) was 0.621 and the relative viability (HARA; first compound 0.001 µM) was 0.523. The relative viability (HARA; first compound 0.003162 µM) was 0.633, the relative viability (HARA; first compound 0.01 µM) was 0.469 and the relative viability (HARA; first compound 0.03162 µM) was 0.179. For the same compound, the relative viability (HARA; first compound 0.1 µM) was 0.231, the relative viability (HCC-366; first compound 0.001 µM) was 0.644 and the relative viability (HCC-366; first compound 0.003162 µM) was 0.93. The relative viability (HCC-366; first compound 0.01 µM) was 0.663, the relative viability (HCC-366; first compound 0.03162 µM) was 0.203 and the relative viability (HCC-366; first compound 0.1 µM) was 0.147. It also gave a relative viability (HCC-78; first compound 0.001 µM) of 0.444, a relative viability (HCC-78; first compound 0.003162 µM) of 0.368 and a relative viability (HCC-78; first compound 0.01 µM) of 0.352. For the same compound, the relative viability (HCC-78; first compound 0.03162 µM) was 0.373, the relative viability (HCC-78; first compound 0.1 µM) was 0.403 and the relative viability (LU99A; first compound 0.001 µM) was 0.272. It also gave a relative viability (LU99A; first compound 0.003162 µM) of 0.304, a relative viability (LU99A; first compound 0.01 µM) of 0.256 and a relative viability (LU99A; first compound 0.03162 µM) of 0.313. It also gave a relative viability (LU99A; first compound 0.1 µM) of 0.273, a relative viability (NCI-H1650; first compound 0.001 µM) of 0.691 and a relative viability (NCI-H1650; first compound 0.003162 µM) of 0.792. For the same compound, the relative viability (NCI-H1650; first compound 0.01 µM) was 0.569, the relative viability (NCI-H1650; first compound 0.03162 µM) was 0.464 and the relative viability (NCI-H1650; first compound 0.1 µM) was 0.426. The relative viability (NCI-H1651; first compound 0.001 µM) was 0.638, the relative viability (NCI-H1651; first compound 0.003162 µM) was 0.727 and the relative viability (NCI-H1651; first compound 0.01 µM) was 0.842. For the same compound, the relative viability (NCI-H1651; first compound 0.03162 µM) was 0.508, the relative viability (NCI-H1651; first compound 0.1 µM) was 0.403 and the relative viability (NCI-H1755; first compound 0.001 µM) was 0.792. For the same compound, the relative viability (NCI-H1755; first compound 0.003162 µM) was 0.617, the relative viability (NCI-H1755; first compound 0.01 µM) was 0.74 and the relative viability (NCI-H1755; first compound 0.03162 µM) was 0.553. It also gave a relative viability (NCI-H1755; first compound 0.1 µM) of 0.383, a relative viability (NCI-H1793; first compound 0.001 µM) of 0.269 and a relative viability (NCI-H1793; first compound 0.003162 µM) of 0.261. For the same compound, the relative viability (NCI-H1793; first compound 0.01 µM) was 0.223, the relative viability (NCI-H1793; first compound 0.03162 µM) was 0.188 and the relative viability (NCI-H1793; first compound 0.1 µM) was 0.173. The relative viability (NCI-H2085; first compound 0.001 µM) was 0.695, the relative viability (NCI-H2085; first compound 0.003162 µM) was 0.549 and the relative viability (NCI-H2085; first compound 0.01 µM) was 0.699. It also gave a relative viability (NCI-H2085; first compound 0.03162 µM) of 0.428, a relative viability (NCI-H2085; first compound 0.1 µM) of 0.467 and a relative viability (NCI-H2087; first compound 0.001 µM) of 0.477. For the same compound, the relative viability (NCI-H2087; first compound 0.003162 µM) was 0.557, the relative viability (NCI-H2087; first compound 0.01 µM) was 0.499 and the relative viability (NCI-H2087; first compound 0.03162 µM) was 0.221. For the same compound, the relative viability (NCI-H2087; first compound 0.1 µM) was 0.239, the relative viability (NCI-H23; first compound 0.001 µM) was 0.58 and the relative viability (NCI-H23; first compound 0.003162 µM) was 0.418. It also gave a relative viability (NCI-H23; first compound 0.01 µM) of 0.418, a relative viability (NCI-H23; first compound 0.03162 µM) of 0.361 and a relative viability (NCI-H23; first compound 0.1 µM) of 0.412. The relative viability (NCI-H3122; first compound 0.001 µM) was 0.961, the relative viability (NCI-H3122; first compound 0.003162 µM) was 1.33 and the relative viability (NCI-H3122; first compound 0.01 µM) was 1.24. It also gave a relative viability (NCI-H3122; first compound 0.03162 µM) of 0.66, a relative viability (NCI-H3122; first compound 0.1 µM) of 0.467 and a relative viability (NCI-H322M; first compound 0.001 µM) of 0.516. It also gave a relative viability (NCI-H322M; first compound 0.003162 µM) of 0.436, a relative viability (NCI-H322M; first compound 0.01 µM) of 0.422 and a relative viability (NCI-H322M; first compound 0.03162 µM) of 0.384. The relative viability (NCI-H322M; first compound 0.1 µM) was 0.481, the relative viability (NCI-H358; first compound 0.001 µM) was 0.708 and the relative viability (NCI-H358; first compound 0.003162 µM) was 1.09. The relative viability (NCI-H358; first compound 0.01 µM) was 0.655, the relative viability (NCI-H358; first compound 0.03162 µM) was 0.666 and the relative viability (NCI-H358; first compound 0.1 µM) was 0.252. It also gave a relative viability (NCI-H460; first compound 0.001 µM) of 0.367, a relative viability (NCI-H460; first compound 0.003162 µM) of 0.2 and a relative viability (NCI-H460; first compound 0.01 µM) of 0.327. The relative viability (NCI-H460; first compound 0.03162 µM) was 0.255, the relative viability (NCI-H460; first compound 0.1 µM) was 0.0921 and the relative viability (NCI-H522; first compound 0.001 µM) was 0.67. It also gave a relative viability (NCI-H522; first compound 0.003162 µM) of 0.648, a relative viability (NCI-H522; first compound 0.01 µM) of 0.754 and a relative viability (NCI-H522; first compound 0.03162 µM) of 0.665. For the same compound, the relative viability (NCI-H522; first compound 0.1 µM) was 0.61, the relative viability (NCI-H596; first compound 0.001 µM) was 0.725 and the relative viability (NCI-H596; first compound 0.003162 µM) was 0.655. It also gave a relative viability (NCI-H596; first compound 0.01 µM) of 0.57, a relative viability (NCI-H596; first compound 0.03162 µM) of 0.306 and a relative viability (NCI-H596; first compound 0.1 µM) of 0.415. It also gave a relative viability (NCI-H650; first compound 0.001 µM) of 0.406, a relative viability (NCI-H650; first compound 0.003162 µM) of 0.526 and a relative viability (NCI-H650; first compound 0.01 µM) of 0.486. For the same compound, the relative viability (NCI-H650; first compound 0.03162 µM) was 0.441, the relative viability (NCI-H650; first compound 0.1 µM) was 0.362 and the relative viability (PC-3 [JPC-3]; first compound 0.001 µM) was 0.702. The relative viability (PC-3 [JPC-3]; first compound 0.003162 µM) was 0.838, the relative viability (PC-3 [JPC-3]; first compound 0.01 µM) was 0.785 and the relative viability (PC-3 [JPC-3]; first compound 0.03162 µM) was 0.703. The relative viability (PC-3 [JPC-3]; first compound 0.1 µM) was 0.475, the relative viability (SK-LU-1; first compound 0.001 µM) was 0.313 and the relative viability (SK-LU-1; first compound 0.003162 µM) was 0.322. For the same compound, the relative viability (SK-LU-1; first compound 0.01 µM) was 0.302, the relative viability (SK-LU-1; first compound 0.03162 µM) was 0.258 and the relative viability (SK-LU-1; first compound 0.1 µM) was 0.265.
